Assays:
[1] = system: Hepatotoxicity;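 for HepSE Combined Scores: combined hepatic side effect score as listed in the training data of the Drug Induced Liver Injury Prediction System (DILIps)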;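 for HepSE bilirubinemia: bilirubinemia hepatic side effect score drawn from the DILIps training data, a prediction system for drug-induced liver injury; call rule not given here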;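 for HepSE cholecystitis: Cholecystitis-related hepatic side effect score drawn from the DILIps (drug-induced liver injury prediction) training data set; call rule not given here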;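 for HepSE cholelithiasis: hepatic side effect score for cholelithiasis, drawn from the DILIps training data for predicting drug-induced liver injury; call rule not given here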;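 for HepSE cirrhosis: cirrhosis hepatic side effect score taken from the DILIps (drug-induced liver injury prediction) training set; call rule not given here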;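 for HepSE elevated liver function tests: hepatic side effect score for raised liver function tests, as recorded in the DILIps training set used for predicting drug-induced liver injury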; for HepSE hepatic failure: call rule not given here
[2] = system: Hepatotoxicity; remark: listed apart in the source;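 for HepSE Combined Scores: combined hepatic side effect score as listed in the training data of the Drug Induced Liver Injury Prediction System (DILIps)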;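 for HepSE bilirubinemia: bilirubinemia hepatic side effect score drawn from the DILIps training data, a prediction system for drug-induced liver injury; call rule not given here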;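 for HepSE cholecystitis: Cholecystitis-related hepatic side effect score drawn from the DILIps (drug-induced liver injury prediction) training data set; call rule not given here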;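 for HepSE cholelithiasis: hepatic side effect score for cholelithiasis, drawn from the DILIps training data for predicting drug-induced liver injury; call rule not given here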;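 for HepSE cirrhosis: cirrhosis hepatic side effect score taken from the DILIps (drug-induced liver injury prediction) training set; call rule not given here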;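 for HepSE elevated liver function tests: hepatic side effect score for raised liver function tests, as recorded in the DILIps training set used for predicting drug-induced liver injury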; for HepSE hepatic failure: call rule not given here
[3] = system: Hepatotoxicity; remark: listed apart in the source;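 for HepSE bilirubinemia: bilirubinemia hepatic side effect score drawn from the DILIps training data, a prediction system for drug-induced liver injury; call rule not given here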;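 for HepSE cholecystitis: Cholecystitis-related hepatic side effect score drawn from the DILIps (drug-induced liver injury prediction) training data set; call rule not given here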;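 for HepSE cholelithiasis: hepatic side effect score for cholelithiasis, drawn from the DILIps training data for predicting drug-induced liver injury; call rule not given here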;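 for HepSE cirrhosis: cirrhosis hepatic side effect score taken from the DILIps (drug-induced liver injury prediction) training set; call rule not given here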;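 for HepSE elevated liver function tests: hepatic side effect score for raised liver function tests, as recorded in the DILIps training set used for predicting drug-induced liver injury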; for HepSE hepatic failure: call rule not given here
[4] = system: Hepatotoxicity; remark: listed apart in the source;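 for HepSE bilirubinemia: bilirubinemia hepatic side effect score drawn from the DILIps training data, a prediction system for drug-induced liver injury; call rule not given here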;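 for HepSE cholecystitis: Cholecystitis-related hepatic side effect score drawn from the DILIps (drug-induced liver injury prediction) training data set; call rule not given here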;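 for HepSE cholelithiasis: hepatic side effect score for cholelithiasis, drawn from the DILIps training data for predicting drug-induced liver injury; call rule not given here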;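 for HepSE cirrhosis: cirrhosis hepatic side effect score taken from the DILIps (drug-induced liver injury prediction) training set; call rule not given here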;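 for HepSE elevated liver function tests: hepatic side effect score for raised liver function tests, as recorded in the DILIps training set used for predicting drug-induced liver injury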; for HepSE hepatic failure: call rule not given here
[5] = system: Hepatotoxicity; remark: listed apart in the source; for HepSE hepatic failure: call rule not given here
[6] = system: Hepatotoxicity; remark: listed apart in the source; for HepSE hepatic failure: call rule not given here
[7] = system: Hepatotoxicity; remark: listed apart in the source
[8] = system: Hepatotoxicity; remark: listed apart in the source
[9] = system: Hepatotoxicity; remark: listed apart in the source
[10] = system: Hepatotoxicity; remark: listed apart in the source
[11] = system: Hepatotoxicity; remark: listed apart in the source
[12] = system: Hepatotoxicity; remark: listed apart in the source
[13] = system: Hepatotoxicity; remark: listed apart in the source
[14] = system: Hepatotoxicity; remark: listed apart in the source

Row | SMILES | HepSE_hepatic failure [1] | HepSE_bilirubinemia [2] | HepSE_cholecystitis [3] | HepSE_hepatitis [4] | HepSE_elevated liver function tests [5] | HepSE_cirrhosis [6] | HepSE_cholelithiasis [7] | HepSE_hepatic necrosis [8] | HepSE_Combined Scores [9] | HepSE_hepatomegaly [10] | HepSE_liver function tests abnormal [11] | HepSE_liver disease [12] | HepSE_jaundice [13] | HepSE_liver fatty [14] | also measured
1 | O=C(CCCN1CCC(O)(c2ccc(Cl)cc2)CC1)c1ccc(F)cc1 [HALOPERIDOL] | 0 | 0 | 0 | 0 | 0 | 0 | 0 | 0 | 1 | 0 | 0 | 0 | 1 | 0 | 
2 | FC(F)(F)C(Cl)Br (configuration not stated) [HALOTHANE] | 0 | 0 | 0 | 0 | 0 | 0 | 0 | 1 | 1 | 0 | 0 | 0 | 0 | 0 | 
3 | Oc1c(Cl)cc(Cl)c(Cl)c1Cc1c(O)c(Cl)cc(Cl)c1Cl [HEXACHLOROPHENE] | 0 | 0 | 0 | 0 | 0 | 0 | 0 | 0 | 0 | 0 | 0 | 0 | 0 | 0 | 
4 | NNc1nncc2ccccc12 [HYDRALAZINE] |  |  |  |  |  |  |  |  |  |  |  |  |  |  | HepSE_hepatic failure ([1]; Liver): 0; HepSE_bilirubinemia ([2]; Liver): 0; HepSE_cholecystitis ([3]; Liver): 0; HepSE_hepatitis ([4]; Liver): 1; HepSE_elevated liver function tests ([5]; Liver): 0; HepSE_cirrhosis ([6]; Liver): 0; HepSE_cholelithiasis ([7]; Liver): 0; HepSE_hepatic necrosis ([8]; Liver): 0; HepSE_Combined Scores ([9]; Liver): 1; HepSE_hepatomegaly ([10]; Liver): 0; HepSE_liver function tests abnormal ([11]; Liver): 0; HepSE_liver disease ([12]; Liver): 0; HepSE_jaundice ([13]; Liver): 0; HepSE_liver fatty ([14]; Liver): 0
5 | NS(=O)(=O)c1cc2c(cc1Cl)NCNS2(=O)=O [HYDROCHLOROTHIAZIDE] | 0 | 0 | 0 | 0 | 0 | 0 | 0 | 0 | 1 | 0 | 0 | 0 | 1 | 0 | 
6 | C[C@]12CCC(=O)C=C1CC[C@@H]1[C@@H]2[C@@H](O)C[C@@]2(C)[C@H]1CC[C@]2(O)C(=O)CO [HYDROCORTISONE] | 0 | 0 | 0 | 0 | 0 | 0 | 0 | 0 | 1 | 1 | 0 | 0 | 0 | 0 | 
7 | NS(=O)(=O)c1cc2c(cc1C(F)(F)F)NCNS2(=O)=O [HYDROFLUMETHIAZIDE] | 0 | 0 | 0 | 0 | 0 | 0 | 0 | 0 | 1 | 0 | 0 | 0 | 1 | 0 | 
8 | CN1CC[C@]23c4c5ccc(O)c4O[C@H]2C(=O)CC[C@H]3[C@H]1C5 [HYDROMORPHONE] | 1 | 0 | 1 | 0 | 0 | 0 | 0 | 0 | 5 | 1 | 1 | 0 | 1 | 0 | 
9 | CCN(CCO)CCCC(C)Nc1ccnc2cc(Cl)ccc12 (configuration not stated) [HYDROXYCHLOROQUINE] | 1 | 0 | 0 | 0 | 0 | 0 | 0 | 0 | 1 | 0 | 0 | 0 | 0 | 0 | 
10 | NC(=O)NO [HYDROXYUREA] | 0 | 0 | 0 | 0 | 0 | 0 | 0 | 0 | 0 | 0 | 0 | 0 | 0 | 0 | 
11 | OCCOCCN1CCN(C(c2ccccc2)c2ccc(Cl)cc2)CC1 (configuration not stated) [HYDROXYZINE] | 0 | 0 | 0 | 0 | 0 | 0 | 0 | 0 | 0 | 0 | 0 | 0 | 0 | 0 | 
12 | CCCCCN(C)CCC(O)(P(=O)(O)O)P(=O)(O)O [IBANDRONIC ACID] | 0 | 0 | 0 | 0 | 0 | 0 | 0 | 0 | 0 | 0 | 0 | 0 | 0 | 0 | 
13 | CC(C)Cc1ccc(C(C)C(=O)O)cc1 (configuration not stated) [IBUPROFEN] | 1 | 0 | 0 | 1 | 0 | 0 | 0 | 1 | 5 | 0 | 1 | 0 | 1 | 0 | 
14 | CCCCCCCN(CC)CCCC(O)c1ccc(NS(C)(=O)=O)cc1 (configuration not stated) [IBUTILIDE] | 0 | 0 | 0 | 0 | 1 | 0 | 0 | 0 | 1 | 0 | 0 | 0 | 0 | 0 | 
15 | CC(=O)[C@]1(O)Cc2c(O)c3c(c(O)c2[C@@H](O[C@H]2C[C@H](N)[C@H](O)[C@H](C)O2)C1)C(=O)c1ccccc1C3=O [IDARUBICIN] | 0 | 0 | 0 | 0 | 0 | 0 | 0 | 0 | 0 | 0 | 0 | 0 | 0 | 0 | 
16 | O=c1[nH]c(=O)n([C@H]2C[C@H](O)[C@@H](CO)O2)cc1I [IDOXURIDINE] | 0 | 0 | 0 | 0 | 0 | 0 | 0 | 0 | 0 | 0 | 0 | 0 | 0 | 0 | 
17 | O=P1(NCCCl)OCCCN1CCCl (configuration not stated) [IFOSFAMIDE] | 0 | 0 | 0 | 0 | 0 | 0 | 0 | 0 | 0 | 0 | 0 | 0 | 0 | 0 | 
18 | CC#CCC(C)[C@H](O)/C=C/[C@@H]1[C@H]2C/C(=C/CCCC(=O)O)C[C@H]2C[C@H]1O (some centres not stated) [ILOPROST] | 0 | 0 | 0 | 0 | 0 | 0 | 0 | 0 | 0 | 0 | 0 | 0 | 0 | 0 | 

Source: ChEMBL document CHEMBL1909294, “Translating clinical findings into knowledge in drug safety evaluation--drug induced liver injury prediction system (DILIps)” (PLoS Comput Biol, 2011)
